From ChEMBL document CHEMBL5465560, “Selectivity Literature for EUbOPEN Chemogenomic Library” (2024)

What was measured:
[1] = target: Adenosine receptor A1 (Homo sapiens, UniProt P30542); assay: Selectivity interaction (Adenosine 1 receptor binding assay, human recombinant) EUB0000877a ADORA1
[2] = target: Wee1-like protein kinase 2 (Homo sapiens) (UniProt P0C1S8); assay: Selectivity interaction (KinomeScan (DiscoverX)) EUB0000695a WEE2; conditions: at 100 nM
[3] = tested on: Phosphatidylinositol 4,5-bisphosphate 3-kinase catalytic subunit alpha isoform (Homo sapiens), P42336 [M1043I]; conditions: at 10 µM
Chain of Phosphatidylinositol 4,5-bisphosphate 3-kinase catalytic subunit alpha isoform (Homo sapiens), P42336 [M1043I] (P42336 whole entry M1043I, canonical isoform): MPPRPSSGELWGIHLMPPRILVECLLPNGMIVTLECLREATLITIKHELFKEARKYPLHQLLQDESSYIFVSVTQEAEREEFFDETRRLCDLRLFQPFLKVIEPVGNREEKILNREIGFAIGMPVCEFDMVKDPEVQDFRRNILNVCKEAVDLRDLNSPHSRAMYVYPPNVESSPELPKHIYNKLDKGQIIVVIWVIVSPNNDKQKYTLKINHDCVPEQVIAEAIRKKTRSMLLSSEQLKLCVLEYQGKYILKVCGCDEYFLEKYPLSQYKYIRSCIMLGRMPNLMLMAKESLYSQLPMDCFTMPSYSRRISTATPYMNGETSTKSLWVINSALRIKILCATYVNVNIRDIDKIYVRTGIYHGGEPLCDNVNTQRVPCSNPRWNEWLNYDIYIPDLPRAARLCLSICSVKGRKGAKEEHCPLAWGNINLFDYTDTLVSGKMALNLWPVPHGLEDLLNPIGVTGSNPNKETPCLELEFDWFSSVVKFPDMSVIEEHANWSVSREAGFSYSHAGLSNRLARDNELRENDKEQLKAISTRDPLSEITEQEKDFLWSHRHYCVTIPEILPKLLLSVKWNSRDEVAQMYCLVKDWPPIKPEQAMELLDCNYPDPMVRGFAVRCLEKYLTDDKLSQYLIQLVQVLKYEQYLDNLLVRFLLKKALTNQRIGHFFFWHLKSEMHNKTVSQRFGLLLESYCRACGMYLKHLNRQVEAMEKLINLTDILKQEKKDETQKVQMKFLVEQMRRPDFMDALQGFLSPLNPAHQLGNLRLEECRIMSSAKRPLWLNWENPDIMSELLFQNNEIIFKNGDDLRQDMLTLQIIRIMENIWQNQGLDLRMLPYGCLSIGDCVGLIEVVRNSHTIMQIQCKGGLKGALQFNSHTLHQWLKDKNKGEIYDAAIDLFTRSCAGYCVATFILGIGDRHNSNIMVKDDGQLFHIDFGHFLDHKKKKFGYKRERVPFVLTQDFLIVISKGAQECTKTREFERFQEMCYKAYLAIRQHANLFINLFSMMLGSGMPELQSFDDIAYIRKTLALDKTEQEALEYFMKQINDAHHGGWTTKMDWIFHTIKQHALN

[4] = target: T1, Myotonin-protein kinase (Homo sapiens) (UniProt Q09013); assay: Selectivity interaction (KinomeScan (DiscoverX)) EUB0001079a DMPK; conditions: at 1 µM
T1 sequence (whole entry): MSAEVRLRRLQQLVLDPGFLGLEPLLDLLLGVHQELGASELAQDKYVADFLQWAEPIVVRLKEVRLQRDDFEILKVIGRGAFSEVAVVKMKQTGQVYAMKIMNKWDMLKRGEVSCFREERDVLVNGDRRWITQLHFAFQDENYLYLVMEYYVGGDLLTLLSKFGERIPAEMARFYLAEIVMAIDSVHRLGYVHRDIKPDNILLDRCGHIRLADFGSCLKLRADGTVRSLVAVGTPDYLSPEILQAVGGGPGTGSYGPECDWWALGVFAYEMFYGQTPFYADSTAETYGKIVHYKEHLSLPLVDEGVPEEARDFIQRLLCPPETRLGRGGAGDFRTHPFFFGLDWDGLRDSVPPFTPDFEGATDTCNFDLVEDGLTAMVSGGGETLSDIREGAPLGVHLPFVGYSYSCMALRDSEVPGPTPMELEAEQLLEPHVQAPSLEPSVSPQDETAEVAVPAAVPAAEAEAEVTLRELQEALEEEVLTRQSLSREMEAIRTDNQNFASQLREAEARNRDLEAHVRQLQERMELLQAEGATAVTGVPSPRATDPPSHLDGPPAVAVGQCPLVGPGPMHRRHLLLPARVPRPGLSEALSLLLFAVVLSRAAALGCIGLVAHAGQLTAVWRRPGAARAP

[5] = target: cAMP-dependent protein kinase catalytic subunit alpha (Homo sapiens, UniProt P17612); assay: Selectivity interaction (ProQinase) EUB0000171b PRKACA
[6] = tested on: Epidermal growth factor receptor (Homo sapiens), P00533 [L858R]; assay: (§1) Selectivity interaction (KinomeScan (DiscoverX)) EUB0000092b EGFR; conditions: at 10 µM
Chain of Epidermal growth factor receptor (Homo sapiens), P00533 [L858R] (P00533 whole entry L858R): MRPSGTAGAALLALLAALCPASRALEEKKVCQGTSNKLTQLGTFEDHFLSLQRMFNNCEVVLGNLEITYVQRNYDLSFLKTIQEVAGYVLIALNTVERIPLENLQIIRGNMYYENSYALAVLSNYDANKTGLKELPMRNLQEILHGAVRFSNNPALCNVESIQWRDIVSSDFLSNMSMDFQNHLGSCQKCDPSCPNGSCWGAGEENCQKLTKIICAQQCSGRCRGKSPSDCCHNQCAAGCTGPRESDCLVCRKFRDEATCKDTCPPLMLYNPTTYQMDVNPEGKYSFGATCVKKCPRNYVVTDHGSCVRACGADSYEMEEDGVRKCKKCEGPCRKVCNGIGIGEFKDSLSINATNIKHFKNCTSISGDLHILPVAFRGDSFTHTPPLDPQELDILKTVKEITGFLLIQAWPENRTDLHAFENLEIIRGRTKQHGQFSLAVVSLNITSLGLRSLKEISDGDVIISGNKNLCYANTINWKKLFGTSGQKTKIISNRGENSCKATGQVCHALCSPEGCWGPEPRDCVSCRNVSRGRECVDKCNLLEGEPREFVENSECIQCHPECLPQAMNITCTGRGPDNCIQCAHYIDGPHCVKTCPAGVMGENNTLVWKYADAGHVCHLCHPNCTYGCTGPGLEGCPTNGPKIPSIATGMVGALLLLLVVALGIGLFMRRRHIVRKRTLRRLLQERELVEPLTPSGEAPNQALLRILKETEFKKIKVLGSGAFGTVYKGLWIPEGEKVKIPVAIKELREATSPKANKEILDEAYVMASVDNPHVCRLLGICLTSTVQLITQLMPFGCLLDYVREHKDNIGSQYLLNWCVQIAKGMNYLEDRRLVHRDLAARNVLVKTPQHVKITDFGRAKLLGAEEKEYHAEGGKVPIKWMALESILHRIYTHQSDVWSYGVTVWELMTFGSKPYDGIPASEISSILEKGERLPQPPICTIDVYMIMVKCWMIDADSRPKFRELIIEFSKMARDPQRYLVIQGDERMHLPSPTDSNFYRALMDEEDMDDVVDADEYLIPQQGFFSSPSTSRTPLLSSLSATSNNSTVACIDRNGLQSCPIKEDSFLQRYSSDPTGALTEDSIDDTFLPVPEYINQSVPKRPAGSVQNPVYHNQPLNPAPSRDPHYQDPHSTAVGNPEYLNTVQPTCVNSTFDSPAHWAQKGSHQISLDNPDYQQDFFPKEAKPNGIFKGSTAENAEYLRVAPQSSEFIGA

[7] = tested on: Epidermal growth factor receptor (Homo sapiens), P00533 [T790M]; assay: as §1; conditions: at 10 µM
Chain of Epidermal growth factor receptor (Homo sapiens), P00533 [T790M] (P00533 whole entry T790M): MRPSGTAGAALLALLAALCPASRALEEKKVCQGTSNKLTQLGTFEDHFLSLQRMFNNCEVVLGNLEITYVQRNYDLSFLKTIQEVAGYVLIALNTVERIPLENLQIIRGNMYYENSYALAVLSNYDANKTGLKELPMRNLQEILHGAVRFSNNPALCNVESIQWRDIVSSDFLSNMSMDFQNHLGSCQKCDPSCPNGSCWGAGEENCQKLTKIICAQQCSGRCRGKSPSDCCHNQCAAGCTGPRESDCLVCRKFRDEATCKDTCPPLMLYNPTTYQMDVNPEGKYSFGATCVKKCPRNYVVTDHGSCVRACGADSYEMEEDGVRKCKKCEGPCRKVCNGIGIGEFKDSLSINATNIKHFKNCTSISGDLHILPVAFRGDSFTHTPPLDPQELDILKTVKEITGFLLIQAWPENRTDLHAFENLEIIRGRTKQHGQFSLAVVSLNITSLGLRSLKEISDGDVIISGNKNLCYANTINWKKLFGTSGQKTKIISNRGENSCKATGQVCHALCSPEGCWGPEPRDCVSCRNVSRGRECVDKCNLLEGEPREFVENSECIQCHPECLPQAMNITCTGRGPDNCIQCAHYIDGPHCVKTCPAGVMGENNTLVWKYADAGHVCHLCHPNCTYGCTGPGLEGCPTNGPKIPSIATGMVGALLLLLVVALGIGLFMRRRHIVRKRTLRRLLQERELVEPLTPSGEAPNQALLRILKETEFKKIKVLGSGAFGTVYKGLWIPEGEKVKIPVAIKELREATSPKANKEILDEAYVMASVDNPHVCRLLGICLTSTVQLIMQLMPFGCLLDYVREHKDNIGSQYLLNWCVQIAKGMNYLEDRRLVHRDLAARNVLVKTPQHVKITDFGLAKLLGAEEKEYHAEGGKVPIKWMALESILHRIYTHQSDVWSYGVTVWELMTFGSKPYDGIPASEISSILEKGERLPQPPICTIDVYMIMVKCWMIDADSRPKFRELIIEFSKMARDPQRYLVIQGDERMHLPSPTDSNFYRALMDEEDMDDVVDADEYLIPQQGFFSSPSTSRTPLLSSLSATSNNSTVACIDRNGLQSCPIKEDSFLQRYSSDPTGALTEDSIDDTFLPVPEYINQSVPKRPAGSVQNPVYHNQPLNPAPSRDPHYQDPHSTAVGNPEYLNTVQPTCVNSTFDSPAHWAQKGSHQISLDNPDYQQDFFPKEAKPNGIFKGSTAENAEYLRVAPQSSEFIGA

[8] = tested on: Epidermal growth factor receptor (Homo sapiens), P00533 [UNDEFINED MUTATION]; assay: as §1; conditions: at 10 µM
[9] = target: T2, Serine/threonine-protein kinase ULK2 (Homo sapiens) (UniProt Q8IYT8); assay: Selectivity interaction (KinomeScan (DiscoverX)) EUB0000045b ULK2
T2 sequence (whole entry): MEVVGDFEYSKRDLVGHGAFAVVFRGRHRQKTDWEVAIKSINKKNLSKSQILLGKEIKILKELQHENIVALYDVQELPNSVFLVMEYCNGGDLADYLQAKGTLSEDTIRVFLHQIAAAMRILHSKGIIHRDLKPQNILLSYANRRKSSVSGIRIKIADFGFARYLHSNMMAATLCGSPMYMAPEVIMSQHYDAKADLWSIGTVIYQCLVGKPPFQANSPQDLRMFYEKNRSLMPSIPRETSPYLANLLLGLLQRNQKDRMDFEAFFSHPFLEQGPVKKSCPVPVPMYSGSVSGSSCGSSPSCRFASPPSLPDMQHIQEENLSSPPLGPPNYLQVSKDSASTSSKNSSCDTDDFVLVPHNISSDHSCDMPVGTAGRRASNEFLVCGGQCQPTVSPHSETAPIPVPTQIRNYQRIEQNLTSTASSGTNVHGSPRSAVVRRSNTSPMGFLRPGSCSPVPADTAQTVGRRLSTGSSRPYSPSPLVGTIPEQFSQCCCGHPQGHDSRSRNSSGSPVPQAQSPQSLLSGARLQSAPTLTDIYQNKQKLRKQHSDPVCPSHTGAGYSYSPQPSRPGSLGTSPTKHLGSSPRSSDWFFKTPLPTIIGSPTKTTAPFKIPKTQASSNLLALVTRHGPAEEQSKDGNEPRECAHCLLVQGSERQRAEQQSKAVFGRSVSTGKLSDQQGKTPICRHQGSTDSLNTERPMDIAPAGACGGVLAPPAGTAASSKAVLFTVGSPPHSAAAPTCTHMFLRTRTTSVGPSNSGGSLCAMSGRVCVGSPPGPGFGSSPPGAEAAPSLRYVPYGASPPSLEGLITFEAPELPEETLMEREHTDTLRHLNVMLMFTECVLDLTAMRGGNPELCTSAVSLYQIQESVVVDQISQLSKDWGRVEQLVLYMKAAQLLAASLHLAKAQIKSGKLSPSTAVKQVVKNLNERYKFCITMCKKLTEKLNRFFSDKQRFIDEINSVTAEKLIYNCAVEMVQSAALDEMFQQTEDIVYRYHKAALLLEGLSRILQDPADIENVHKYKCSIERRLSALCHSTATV

[10] = target: Focal adhesion kinase 1 (Homo sapiens, UniProt Q05397); assay: Selectivity interaction (KinomeScan (DiscoverX)) EUB0000655a PTK2; conditions: at 10 µM
[11] = target: DNA-dependent protein kinase catalytic subunit (Homo sapiens) (UniProt P78527); assay: Selectivity interaction (ActivX KiNativ screen (ex vivo kinase selectivity in human PBMCs)) EUB0001619a PRKDC; type: cell-based; conditions: PBMC, at 1 µM
[12] = target: T3, Scaffold protein ILK (Homo sapiens) (UniProt Q13418); assay: Selectivity interaction (ActivX KiNativ screen (ex vivo kinase selectivity in human PBMCs)) EUB0001619a ILK; type: cell-based; conditions: PBMC, at 1 µM
T3 sequence (whole entry): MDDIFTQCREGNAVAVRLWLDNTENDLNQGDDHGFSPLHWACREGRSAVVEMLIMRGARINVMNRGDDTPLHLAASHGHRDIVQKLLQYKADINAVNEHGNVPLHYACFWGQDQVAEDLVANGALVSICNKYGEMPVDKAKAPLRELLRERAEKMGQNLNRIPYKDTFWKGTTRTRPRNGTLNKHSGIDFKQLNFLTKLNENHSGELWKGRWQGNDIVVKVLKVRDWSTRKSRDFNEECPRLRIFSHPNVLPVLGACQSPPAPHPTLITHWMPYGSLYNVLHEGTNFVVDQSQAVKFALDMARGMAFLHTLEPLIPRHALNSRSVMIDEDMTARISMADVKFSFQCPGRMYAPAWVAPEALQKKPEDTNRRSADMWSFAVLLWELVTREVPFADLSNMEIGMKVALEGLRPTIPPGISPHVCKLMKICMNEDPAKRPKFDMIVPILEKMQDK

[13] = target: Mitogen-activated protein kinase 14 (Homo sapiens, UniProt Q16539); assay: Selectivity interaction (Kinase panel (DSF assay)) EUB0001559a MAPK14
Chain of Mitogen-activated protein kinase 14 (Q16539 whole entry): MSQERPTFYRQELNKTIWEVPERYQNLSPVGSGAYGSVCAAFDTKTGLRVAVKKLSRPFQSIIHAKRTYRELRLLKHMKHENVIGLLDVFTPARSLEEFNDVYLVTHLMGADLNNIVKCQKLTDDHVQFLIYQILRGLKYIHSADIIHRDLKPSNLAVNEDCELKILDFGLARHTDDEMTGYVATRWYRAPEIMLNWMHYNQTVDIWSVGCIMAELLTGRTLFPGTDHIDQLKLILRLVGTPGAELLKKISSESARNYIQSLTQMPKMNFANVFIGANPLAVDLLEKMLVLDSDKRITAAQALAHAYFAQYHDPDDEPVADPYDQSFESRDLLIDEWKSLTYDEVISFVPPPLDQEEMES

[14] = target: Leukocyte tyrosine kinase receptor (Homo sapiens, UniProt P29376); assay: Selectivity interaction (SelectScreen profiling (Invitrogen)) EUB0000607a LTK; conditions: at 2 µM
Chain of Leukocyte tyrosine kinase receptor (P29376 whole entry): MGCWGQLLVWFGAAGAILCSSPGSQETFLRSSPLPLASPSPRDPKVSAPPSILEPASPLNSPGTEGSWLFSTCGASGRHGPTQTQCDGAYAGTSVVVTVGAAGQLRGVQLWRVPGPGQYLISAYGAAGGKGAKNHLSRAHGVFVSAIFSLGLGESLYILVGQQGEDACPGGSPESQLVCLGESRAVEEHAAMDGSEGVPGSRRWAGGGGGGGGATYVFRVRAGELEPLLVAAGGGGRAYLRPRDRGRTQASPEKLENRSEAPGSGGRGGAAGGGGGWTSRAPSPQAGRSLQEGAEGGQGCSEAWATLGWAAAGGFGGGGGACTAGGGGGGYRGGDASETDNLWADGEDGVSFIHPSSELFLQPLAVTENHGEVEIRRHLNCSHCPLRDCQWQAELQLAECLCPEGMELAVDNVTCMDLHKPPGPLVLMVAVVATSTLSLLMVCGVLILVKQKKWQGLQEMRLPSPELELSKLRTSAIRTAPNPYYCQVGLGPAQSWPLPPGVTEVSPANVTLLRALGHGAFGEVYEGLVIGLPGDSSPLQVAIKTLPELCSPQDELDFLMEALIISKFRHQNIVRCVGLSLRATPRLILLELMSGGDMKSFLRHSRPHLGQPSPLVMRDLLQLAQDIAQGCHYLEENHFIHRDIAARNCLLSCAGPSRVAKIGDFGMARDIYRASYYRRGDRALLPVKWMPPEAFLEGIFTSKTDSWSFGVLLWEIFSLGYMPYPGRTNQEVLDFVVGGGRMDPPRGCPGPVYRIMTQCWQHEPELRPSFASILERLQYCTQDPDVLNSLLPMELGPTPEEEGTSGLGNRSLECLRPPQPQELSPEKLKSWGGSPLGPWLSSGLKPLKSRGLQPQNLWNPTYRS

Chain of Adenosine receptor A1 (P30542 whole entry): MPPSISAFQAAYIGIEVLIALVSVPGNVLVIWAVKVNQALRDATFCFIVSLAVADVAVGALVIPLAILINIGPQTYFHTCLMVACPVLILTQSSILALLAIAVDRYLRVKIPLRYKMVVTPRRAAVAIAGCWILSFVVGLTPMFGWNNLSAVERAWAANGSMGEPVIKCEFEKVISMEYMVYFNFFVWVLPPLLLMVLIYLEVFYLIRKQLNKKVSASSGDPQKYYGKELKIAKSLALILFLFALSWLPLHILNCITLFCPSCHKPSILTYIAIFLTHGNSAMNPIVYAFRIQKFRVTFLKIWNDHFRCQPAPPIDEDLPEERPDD

Compound `CCC(=O)N1CC[C@H](Nc2ncnc3c2CN(c2cnc(OC)c(C(F)(F)F)c2)CC3)C1` [LENIOLISIB] has an IC50 [1] of over 30 µM.

With `Cc1cc(F)c(C(=O)Nc2cccc(-c3nncn3C(C)C)n2)cc1-n1cnc(C2CC2)c1` the % of control [2] was 100%.

`COCC(=O)NC/C=C/c1ccc2ncnc(Nc3ccc(Oc4ccc(C)nc4)c(C)c3)c2c1` [CP-724714] gave a % of control [3] of 100%.

Work on `Nc1cnc(N2CCc3cc(S(=O)(=O)Nc4c(F)cc(Cl)cc4F)cc(N4CCCC4=O)c32)nc1` [TP-020n] yielded a % of control [4] of 100%.

In the case of `C=CC(=O)Nc1cccc(C(=O)Nc2ccc(Nc3cc(-c4[nH]c(SC)nc4C)ccn3)cc2)c1`, the % of control ([5]; at 1 µM) is reported as 84% and the % of control ([5]; at 5 µM) is reported as 66%.

Work on `CCC(=O)N1CCN(c2ccc(-n3c(=O)ccc4cnc5ccc(-c6cnc7ccccc7c6)cc5c43)cc2C(F)(F)F)CC1` yielded a % of control [6] of 100%, a % of control [7] of 100% and a % of control [8] of 100%.

Compound `C=CC(=O)Nc1cc(-n2c(=O)ccc3cnc4ccc(-c5ccc(NS(C)(=O)=O)cc5)cc4c32)ccc1C` has a % of control ([9]; at 1 µM) of 100% and a % of control ([9]; at 10 µM) of 92%.

`CN(C)CCOc1ccc(-c2nc(-c3ccncc3)c(-c3ccc4c(c3)CC/C4=N\O)[nH]2)cc1` gave a % of control [10] of 100%.

For `N#Cc1cccc(-c2c[nH]c3ncnc(N4CCOCC4)c23)c1`, the % of inhibition [11] was -2% and the % of inhibition [12] was 14%.

Compound `CN(C(=O)c1cnn2cccnc12)c1cc2c(cc1N1CCOCC1)C(=O)N(C[C@@H](F)C(C)(C)O)C2` has a dTM [13] of -0.3 K.

With `CNC(=O)Nc1ccc(-c2nc(N3CC4CCC(C3)O4)c3cnn(C4CCC5(CC4)OCCO5)c3n2)cc1` the % of inhibition [14] was 8%.
